In series [1] the test system is long chain fatty acid oxidation. The settings on record: oral supplementation, slightly overweight adults; cited from earlier work.
A further series has as its system adults. As to conditions: 1200 mg for a 60 kg person, 1993 GRAS expert committee; cited from earlier work.
For another series, the system named is cells (mitochondria). The settings on record: cited from earlier work.
The test system of series [2] is long chain fatty acid oxidation. The settings on record: oral supplementation, healthy subjects; cited from earlier work.
The nature of series [3]: Solubility of L-carnitine in water (100-2000 mg per 16 oz). The class given is physicochemical. The settings on record: about 100 mg to about 2000 mg per 16 fluid ounces of water.
Experimental: A pre-measured amount of L-carnitine was added into water at a final concentration range from about 100 mg to about 2000 mg per 16 fluid ounces (oz) of water.

We go through 3 molecules from US20110027192A1, “SLIM-FIT FAT BURNING WATER” (priority 2008, published 2011).

In the case of `C[N+](C)(C)C[C@H](O)CC(=O)[O-].O=C(O)C(O)C(O)C(=O)O` [L-Carnitine L-Tartrate], in series [1], the “long chain fatty acid oxidation” value is on record as “increased long chain fatty acid oxidation”. The “amount that can be safely ingested by adults” value in the series with adults was 20 mg/kg/day.

In the case of `C[N+](C)(C)C[C@H](O)CC(=O)[O-].O=C([O-])CC(O)(CC(=O)[O-])C(=O)[O-].O=C([O-])CC(O)(CC(=O)[O-])C(=O)[O-].[Mg+2].[Mg+2].[Mg+2]` [L-Carnitine Magnesium Citrate], in the series with adults, the “amount that can be safely ingested by adults” value is reported as 20 mg/kg/day.

For the molecule `C[N+](C)(C)C[C@H](O)CC(=O)[O-]` [L-carnitine], the “rate at which cells (mitochondria) burned fat” value with cells (mitochondria) is “increased the rate”. Besides, in series [2], the “long chain fatty acid oxidation as measured by 13CO2 exhalation” value is “improved long chain fatty acid oxidation”. Moreover, the “amount that can be safely ingested by adults” value with adults is 20 mg/kg/day. The “solubility in the water” value in series [3] is on record as “completely soluble”.
